Our source for the IC50 and Activity values is ChEMBL document CHEMBL5042504 (J Med Chem, 2022).

In general, IC50 refers to the concentration that gives 50% inhibition.

In test [1] the target is T1, Protein deacetylase HDAC6 (Homo sapiens, UniProt Q9UBN7).
T1 sequence (Q9UBN7 whole entry): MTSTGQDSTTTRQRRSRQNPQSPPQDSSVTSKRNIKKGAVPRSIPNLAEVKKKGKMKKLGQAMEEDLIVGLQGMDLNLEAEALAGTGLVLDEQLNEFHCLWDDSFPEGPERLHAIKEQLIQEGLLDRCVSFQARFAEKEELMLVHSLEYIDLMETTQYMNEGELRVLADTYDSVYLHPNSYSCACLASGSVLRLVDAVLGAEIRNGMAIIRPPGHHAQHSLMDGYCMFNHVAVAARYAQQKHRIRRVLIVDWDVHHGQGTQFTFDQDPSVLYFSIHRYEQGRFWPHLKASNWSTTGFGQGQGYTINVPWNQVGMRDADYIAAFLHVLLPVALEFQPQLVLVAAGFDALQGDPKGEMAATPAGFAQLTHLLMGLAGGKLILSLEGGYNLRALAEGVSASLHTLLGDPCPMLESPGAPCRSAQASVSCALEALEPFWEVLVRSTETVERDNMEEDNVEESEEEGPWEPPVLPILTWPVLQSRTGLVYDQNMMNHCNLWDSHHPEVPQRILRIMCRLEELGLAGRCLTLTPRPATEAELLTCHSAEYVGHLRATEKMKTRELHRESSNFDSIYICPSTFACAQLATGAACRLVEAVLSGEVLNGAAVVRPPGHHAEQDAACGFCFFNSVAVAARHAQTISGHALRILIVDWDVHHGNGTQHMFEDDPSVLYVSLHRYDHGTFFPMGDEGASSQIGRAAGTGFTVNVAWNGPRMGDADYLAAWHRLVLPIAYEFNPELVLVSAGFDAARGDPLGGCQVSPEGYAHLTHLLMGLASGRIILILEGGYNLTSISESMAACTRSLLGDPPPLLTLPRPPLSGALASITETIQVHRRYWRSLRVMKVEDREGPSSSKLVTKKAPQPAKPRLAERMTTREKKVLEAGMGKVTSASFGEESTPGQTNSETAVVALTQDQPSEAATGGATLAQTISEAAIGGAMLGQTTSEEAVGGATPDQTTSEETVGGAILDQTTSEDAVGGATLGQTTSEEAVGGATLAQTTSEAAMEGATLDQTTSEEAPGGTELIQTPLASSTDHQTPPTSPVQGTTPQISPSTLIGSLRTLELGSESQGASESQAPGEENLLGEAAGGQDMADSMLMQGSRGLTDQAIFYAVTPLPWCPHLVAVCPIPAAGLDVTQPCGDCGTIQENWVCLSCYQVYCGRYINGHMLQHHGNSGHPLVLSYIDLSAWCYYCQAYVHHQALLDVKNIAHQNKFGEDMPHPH
Put plainly: Inhibition of human recombinant HDAC6 using Boc-Lys(acetyl)-AMC substrate incubated for 2 hrs by fluorescence based assay.

The next test has as its target Histone deacetylase 4 (Homo sapiens, UniProt P56524). Put plainly: Inhibition of human recombinant HDAC4 using Boc-Lys(triflouroacetyI)-AMC substrate incubated for 2 hrs by fluorescence based assay.
The next test addresses Histone deacetylase 5 (Homo sapiens, UniProt Q9UQL6). Put plainly: Inhibition of human recombinant HDAC5 using Boc-Lys(triflouroacetyI)-AMC substrate incubated for 2 hrs by fluorescence based assay.
A further test deals with T2, Histone deacetylase 8 (Homo sapiens, UniProt Q9BY41).
T2 sequence (Q9BY41 whole entry): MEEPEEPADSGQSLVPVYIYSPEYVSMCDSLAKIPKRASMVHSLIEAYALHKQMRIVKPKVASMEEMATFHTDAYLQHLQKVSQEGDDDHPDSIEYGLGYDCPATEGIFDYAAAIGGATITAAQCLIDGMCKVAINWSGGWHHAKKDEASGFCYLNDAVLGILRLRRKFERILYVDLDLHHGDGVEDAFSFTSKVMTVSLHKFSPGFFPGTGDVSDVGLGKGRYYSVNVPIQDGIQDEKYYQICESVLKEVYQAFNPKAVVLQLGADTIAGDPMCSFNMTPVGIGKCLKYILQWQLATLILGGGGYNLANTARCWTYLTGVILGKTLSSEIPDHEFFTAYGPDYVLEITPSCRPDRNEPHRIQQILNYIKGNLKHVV
Description: Inhibition of human recombinant HDAC8 using Boc-Lys(triflouroacetyI)-AMC substrate incubated for 2 hrs by fluorescence based assay.

A further test has as its target Histone deacetylase 9 (Homo sapiens, UniProt Q9UKV0). Put plainly: Inhibition of human recombinant HDAC9 using Boc-Lys(triflouroacetyI)-AMC substrate incubated for 2 hrs by fluorescence based assay.
Test [2] concerns the target T3, Polyamine deacetylase HDAC10 (Homo sapiens, UniProt Q969S8).
T3 sequence (Q969S8 whole entry): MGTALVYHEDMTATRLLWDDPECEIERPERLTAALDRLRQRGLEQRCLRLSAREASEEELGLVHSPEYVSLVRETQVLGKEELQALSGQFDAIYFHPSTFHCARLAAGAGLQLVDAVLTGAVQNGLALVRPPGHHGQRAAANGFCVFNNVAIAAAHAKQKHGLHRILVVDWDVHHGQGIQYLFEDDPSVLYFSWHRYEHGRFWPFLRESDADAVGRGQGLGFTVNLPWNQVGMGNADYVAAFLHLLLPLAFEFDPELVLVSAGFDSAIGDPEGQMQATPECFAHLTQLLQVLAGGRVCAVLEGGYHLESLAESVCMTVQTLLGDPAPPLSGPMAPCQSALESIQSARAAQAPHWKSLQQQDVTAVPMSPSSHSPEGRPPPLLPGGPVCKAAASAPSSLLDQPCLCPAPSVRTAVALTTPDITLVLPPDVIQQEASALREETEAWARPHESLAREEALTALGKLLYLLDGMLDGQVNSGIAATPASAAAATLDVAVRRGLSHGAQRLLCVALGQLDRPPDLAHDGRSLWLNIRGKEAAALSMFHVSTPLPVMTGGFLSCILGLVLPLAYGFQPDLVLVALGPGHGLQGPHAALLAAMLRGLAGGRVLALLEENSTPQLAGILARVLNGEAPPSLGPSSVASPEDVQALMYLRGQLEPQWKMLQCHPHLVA
Description: Inhibition of human recombinant HDAC10 using Boc-Lys(triflouroacetyI)-AMC substrate incubated for 2 hrs by fluorescence based assay.

In a further test the test system is MOLM-13. Description: Antiproliferative activity against human MOLM-13 cells assessed as reduction in cell viability measured after 48 hrs by multiplate reader method. The settings on record: MOLM-13, 48 h.
The next test has as its system RS4-11. Description: Antiproliferative activity against human RS4-11 cells assessed as reduction in cell viability measured after 48 hrs by multiplate reader method. Conditions: RS4-11, 48 h.
A further test deals with HL-60. Put plainly: Antiproliferative activity against human HL-60 cells assessed as reduction in cell viability after 48 hrs by multiplate reader method. The settings on record: HL-60, 48 h.
The test system of a further test is U-937. Put plainly: Antiproliferative activity against human U-937 cells assessed as reduction in cell viability after 48 hrs by MTT assay. Conditions: U-937, 48 h. On the technique in general: Formazan colour is commonly taken as a measure of viable cells.
Test [3] has as its system MV4-11. Description: Up regulation of acetylated histoneH4 in expression in human MV4-11 cells at 100 nM measured after 24 hrs by Western blot analysis. It is filed as functional, cell-based.
The subject of test [4] is MV4-11. Put plainly: Up regulation of acetylated histoneH4 ine expression in human MV4-11 cells at 200 nM measured after 24 hrs by Western blot analysis. The class given is functional, cell-based. On the technique in general: In western blotting, separated proteins are transferred to a membrane and probed.

Activity calls are given as the source filed them. No cut-off for these calls is given here. Bounds are passed on as bounds.

Chain of Histone deacetylase 5 (Q9UQL6 whole entry): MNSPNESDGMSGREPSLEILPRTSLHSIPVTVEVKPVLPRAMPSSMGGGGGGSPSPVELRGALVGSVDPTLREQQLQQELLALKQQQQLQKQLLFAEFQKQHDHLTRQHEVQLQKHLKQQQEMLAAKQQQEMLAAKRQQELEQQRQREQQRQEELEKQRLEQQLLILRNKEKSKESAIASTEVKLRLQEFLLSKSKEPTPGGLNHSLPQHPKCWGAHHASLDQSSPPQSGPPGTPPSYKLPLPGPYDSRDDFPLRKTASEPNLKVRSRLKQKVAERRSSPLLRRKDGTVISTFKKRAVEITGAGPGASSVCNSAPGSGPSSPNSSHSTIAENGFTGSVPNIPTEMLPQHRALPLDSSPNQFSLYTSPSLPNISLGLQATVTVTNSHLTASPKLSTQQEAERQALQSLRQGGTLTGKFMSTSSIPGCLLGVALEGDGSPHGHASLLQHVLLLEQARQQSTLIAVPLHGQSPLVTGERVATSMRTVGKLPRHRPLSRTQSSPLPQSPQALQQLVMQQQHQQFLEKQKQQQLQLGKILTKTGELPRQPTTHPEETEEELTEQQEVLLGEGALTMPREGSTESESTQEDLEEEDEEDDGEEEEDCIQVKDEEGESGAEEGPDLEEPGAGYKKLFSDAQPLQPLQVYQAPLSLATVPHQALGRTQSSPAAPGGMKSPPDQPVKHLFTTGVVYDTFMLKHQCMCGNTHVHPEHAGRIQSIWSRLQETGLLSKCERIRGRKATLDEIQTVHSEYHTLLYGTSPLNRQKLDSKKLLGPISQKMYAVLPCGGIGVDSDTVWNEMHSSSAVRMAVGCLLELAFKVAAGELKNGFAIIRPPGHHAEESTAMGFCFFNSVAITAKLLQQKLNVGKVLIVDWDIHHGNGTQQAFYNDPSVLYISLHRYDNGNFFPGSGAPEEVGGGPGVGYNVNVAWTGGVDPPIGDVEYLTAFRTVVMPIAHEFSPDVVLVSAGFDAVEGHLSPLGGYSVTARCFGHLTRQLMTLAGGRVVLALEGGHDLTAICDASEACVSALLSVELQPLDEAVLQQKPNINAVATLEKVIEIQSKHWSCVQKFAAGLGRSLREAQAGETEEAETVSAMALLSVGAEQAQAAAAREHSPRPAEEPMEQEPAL
Chain of Histone deacetylase 9 (Q9UKV0 whole entry): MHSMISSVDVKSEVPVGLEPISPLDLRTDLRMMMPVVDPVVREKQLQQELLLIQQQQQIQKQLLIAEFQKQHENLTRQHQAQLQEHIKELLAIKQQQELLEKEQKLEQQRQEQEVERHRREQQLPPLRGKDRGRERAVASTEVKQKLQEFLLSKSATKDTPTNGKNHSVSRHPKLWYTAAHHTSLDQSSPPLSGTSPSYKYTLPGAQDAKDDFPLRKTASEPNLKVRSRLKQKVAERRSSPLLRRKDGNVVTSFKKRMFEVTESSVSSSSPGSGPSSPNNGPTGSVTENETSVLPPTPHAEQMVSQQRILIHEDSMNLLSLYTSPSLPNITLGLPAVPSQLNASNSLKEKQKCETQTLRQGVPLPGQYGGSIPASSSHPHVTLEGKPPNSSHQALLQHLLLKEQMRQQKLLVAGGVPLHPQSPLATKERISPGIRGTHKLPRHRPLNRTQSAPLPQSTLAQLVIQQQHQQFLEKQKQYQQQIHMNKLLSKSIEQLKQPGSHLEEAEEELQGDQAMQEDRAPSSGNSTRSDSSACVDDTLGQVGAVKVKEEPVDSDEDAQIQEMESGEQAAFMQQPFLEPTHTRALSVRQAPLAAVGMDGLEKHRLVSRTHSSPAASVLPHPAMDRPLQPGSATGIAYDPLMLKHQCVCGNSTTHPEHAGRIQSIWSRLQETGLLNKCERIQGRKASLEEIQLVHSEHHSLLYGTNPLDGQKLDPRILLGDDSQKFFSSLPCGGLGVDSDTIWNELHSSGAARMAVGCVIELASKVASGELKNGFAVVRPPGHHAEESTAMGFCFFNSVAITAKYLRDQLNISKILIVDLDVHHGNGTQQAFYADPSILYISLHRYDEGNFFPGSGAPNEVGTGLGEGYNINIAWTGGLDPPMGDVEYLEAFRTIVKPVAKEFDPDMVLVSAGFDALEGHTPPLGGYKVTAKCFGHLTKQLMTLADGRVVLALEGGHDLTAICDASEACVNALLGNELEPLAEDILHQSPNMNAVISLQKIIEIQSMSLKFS
Chain of Histone deacetylase 4 (P56524 whole entry): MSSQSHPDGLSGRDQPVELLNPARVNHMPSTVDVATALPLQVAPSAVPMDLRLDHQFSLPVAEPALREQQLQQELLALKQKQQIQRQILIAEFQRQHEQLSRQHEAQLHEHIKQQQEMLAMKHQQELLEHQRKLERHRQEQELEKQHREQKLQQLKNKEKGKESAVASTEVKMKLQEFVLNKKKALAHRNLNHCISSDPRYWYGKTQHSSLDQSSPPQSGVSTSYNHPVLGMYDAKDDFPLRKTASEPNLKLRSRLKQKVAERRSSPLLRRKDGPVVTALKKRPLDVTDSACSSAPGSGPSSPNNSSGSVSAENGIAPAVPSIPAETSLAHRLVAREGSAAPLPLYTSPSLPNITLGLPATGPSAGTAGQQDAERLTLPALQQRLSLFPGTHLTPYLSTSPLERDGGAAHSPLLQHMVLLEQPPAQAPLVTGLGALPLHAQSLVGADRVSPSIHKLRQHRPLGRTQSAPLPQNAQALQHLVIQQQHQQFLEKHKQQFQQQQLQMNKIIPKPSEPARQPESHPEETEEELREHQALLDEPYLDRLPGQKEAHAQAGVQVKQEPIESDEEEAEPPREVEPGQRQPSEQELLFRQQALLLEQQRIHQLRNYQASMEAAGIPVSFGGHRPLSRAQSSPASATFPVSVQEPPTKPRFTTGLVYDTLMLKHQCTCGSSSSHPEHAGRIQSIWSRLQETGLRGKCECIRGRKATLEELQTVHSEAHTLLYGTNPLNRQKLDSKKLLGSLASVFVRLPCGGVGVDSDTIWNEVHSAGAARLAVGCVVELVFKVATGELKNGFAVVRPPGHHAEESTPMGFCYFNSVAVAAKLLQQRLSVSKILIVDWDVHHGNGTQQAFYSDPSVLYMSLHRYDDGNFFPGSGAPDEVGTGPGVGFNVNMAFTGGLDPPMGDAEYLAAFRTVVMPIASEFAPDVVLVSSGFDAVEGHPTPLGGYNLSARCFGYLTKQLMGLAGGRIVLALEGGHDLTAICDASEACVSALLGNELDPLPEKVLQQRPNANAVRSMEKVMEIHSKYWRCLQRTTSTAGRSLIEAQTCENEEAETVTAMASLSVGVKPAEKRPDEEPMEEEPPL

As for `CCCNNC(=O)c1ccc(CNC(=O)/C=C/c2ccccc2)cc1`, the IC50 was > 10000 nM in test [1]; > 5000 nM on Histone deacetylase 4; > 5000 nM at Histone deacetylase 5; > 5000 nM at Histone deacetylase 8; > 5000 nM at Histone deacetylase 9; > 5000 nM in [2]. For the same molecule, the IC50 in the test with MOLM-13 came to 103 nM; with RS4-11, 82 nM; in the test with HL-60 it was 51.7 nM; in the test with U-937, 161 nM. The outcome with MV4-11 [3] and in the test with MV4-11 [4] was Active.

With `CCCNNC(=O)c1ccc(CNC(=O)c2cc3ccccc3[nH]2)cc1`, the IC50 was > 10000 nM in [1]; > 5000 nM on Histone deacetylase 4; > 5000 nM at Histone deacetylase 5; > 5000 nM at Histone deacetylase 8; > 5000 nM on Histone deacetylase 9; > 5000 nM in test [2]. Besides, the IC50 in the test on MOLM-13 came out at 40.4 nM; in the test with RS4-11, 31.5 nM; with HL-60 it was 26.2 nM; with U-937 it was 60.5 nM. Besides, the outcome in the test on MV4-11 [3] and in the test on MV4-11 [4] was Active.
